The values below come from patent US9440941B2, “Substituted chroman-6-yloxy-cycloalkanes and their use as pharmaceuticals” (SANOFI, priority 2013, dated 2016).

Each structure is given as a SMILES string. Counter-ions that a name gives are not always drawn.

In this assay the target is T1, human NCX1 (Homo sapiens, UniProt P32418).
T1 construct: expressed in transfected cells
Kind of assay: Inhibition of Ca2+ influx into cells (NCX1 reverse mode), FLIPR Fluo-4 assay. Type of assay: cell-based. As to conditions: inhibition of NCX1 in reverse mode (Ca2+ influx into cells); read-out: NCX1rv IC50. From the text: The sodium/calcium exchanger NCX1 can transport calcium ions and sodium ions through the cell membrane. The transport is an exchange of Ca^2+ and Na^+ in two directions depending on membrane potential and ion gradients. At the first direction, named “forward mode” or “calcium export mode”, Ca^2+ is transported out of the cell and Na^+ is transported into the cell. At the other direction, named “reverse mode” or “calcium import mode”, the transport directions are vice versa. The effect of the compounds of the invention on NCX1 was determined in CHO cells stably expressing human NCX1 (gene symbol SLC8A1; cf. WO 2009/115238). The assay is based on the monitoring of intracellular Ca^2+ concentrations using a calcium-sensitive fluorescence dye which is detected by means of a FLIPR device (Fluorimetric Imaging Plate Reader, Molecular Devices).
Assay Technology—Reverse Mode
The assay is based on the monitoring of intracellular Ca^2+ concentrations using the calcium-sensitive dye Fluo-4. CHO cells expressing NCX1 were loaded with the dye by means of the acetoxymethyl ester Fluo-4 AM (Invitrogen, F14202), which is cleaved intracellularly by esterase activity to yield the charged species of free Fluo-4. After an preincubation period with the test compound, Gramicidine (Sigma, G5002) was added. Gramicidine is an ionophor for Na^+ ions mediating an increase of intracellular Na^+ ions. Consequently, intracellular Na^+ ions are exchanged against extracellular Ca^2+ ions (Ca^2+ influx, reverse mode). The intracellular elevation of Ca^2+ ions was detected by measuring the fluorescence of Fluo-4 at a wavelength of 520 nm by a FLIPR device.
Briefly, for the reverse mode transport assay 18000 cells per well were seeded into a 96 well microplate (Corning COSTAR 3904) and incubated overnight in culture medium (1× Nut Mix F12 (Ham) (Gibco, 21765-029); 10% (v/v) fetal calf serum (PAA Gold, A15-649); 450 μg/ml Geneticin (Gibco, 10131-027)). A total volume of 100 μl medium per well was used. For the preparation of the FLIPR assay, the culture medium was removed from the plates and 100 μl of dye solution (2 μM Fluo-4 AM; 0.02% (v/v) Pluronic F-127 (20%, Invitrogen, P3000MP); 0.1% (v/v) bovine albumin solution (30% (v/v), Sigma, A9205) in assay buffer (133.8 mM NaCl (Sigma, S5886); 4.7 mM KCl (Sigma, P3911); 1.25 mM MgCl2 (Merck, 1.05833.0250); 3.5 mM CaCl2 (Merck, 1.02083.0250); 5 mM glucose (Sigma, G7021); 10 mM Hepes (Sigma, H4034); 0.01% (v/v) Pluronic F-127 (5%, Sigma, P2443); 2.5 mM Probenecid (Maybridge, SB00915EB); pH 7.4)) were added into each well. The plates were incubated in the dark at room temperature for 80 min. After the incubation period, the dye solution was removed and the wells were washed with 100 μl of assay buffer. Then 80 μl of a solution of the test compound in assay buffer in different concentrations were added into the wells. The plates were incubated at 16° C. for 45 min. Meanwhile a 60 μM solution of Gramicidine in assay buffer (4° C.) was prepared and stored in the wells of a 96 well microplate (96 well microplate, polypropylene, U-shape (Greiner Bio-One, 650201)) at 4° C. until measurement was started. The fluorescence monitoring was performed at 240 measuring points with measurement intervals of 2 sec. After the fifth measuring point, 40 μl of the Gramicidine solution were added to each well of the assay plates to give a final Gramicidine concentration of 20 μM. For the determination of the IC50 values the minimal fluorescence value was subtracted from the maximal fluorescence value for all measuring points. The calculation of the IC50 values via the percentage inhibitions of Ca^2+ influx into cells (reverse mode) effected by the test compound was performed in Biost@t Speed 2.0.
What is called IC50 is the concentration that inhibits the measured activity by half. On to `O=C(N[C@H]1CC[C@H](Oc2ccc3c(c2)CCC(c2ccccc2F)O3)CC1)c1ccncc1F` (relative stereo) [compound 246], for which the IC50 came out at 100 nM.
Turning to `Cc1nc(C(=O)N[C@H]2CC[C@H](Oc3ccc4c(c3)CCC(c3ccccc3F)O4)CC2)cs1` (relative stereo) [compound 247], the IC50 worked out at 300 nM.
As for `Cc1noc(CCC(=O)N[C@H]2CC[C@H](Oc3ccc4c(c3)CCC(c3ccccc3F)O4)CC2)n1` (relative stereo) [compound 248], the IC50 was determined as 200 nM.
To `Cc1cc(CC(=O)N[C@H]2CC[C@H](Oc3ccc4c(c3)CCC(c3ccccc3F)O4)CC2)on1` (relative stereo) [compound 249] belongs 1100 nM.
On to `Cc1ccn(CC(=O)N[C@H]2CC[C@H](Oc3ccc4c(c3)CCC(c3ccccc3F)O4)CC2)n1` (relative stereo) [compound 250], for which the IC50 stood at 800 nM.
Turning to `O=C(N[C@H]1CC[C@H](Oc2ccc3c(c2)CCC(c2ccccc2F)O3)CC1)C1CC1(F)F` (relative stereo) [compound 251], the IC50 came out at 5000 nM.
In the case of `O=C(CC1CC1)N[C@H]1CC[C@H](Oc2ccc3c(c2)CCC(c2ccccc2F)O3)CC1` (relative stereo) [compound 252], the IC50 was 300 nM.
For the molecule `Cc1nn(C)c(C)c1CCC(=O)N[C@H]1CC[C@H](Oc2ccc3c(c2)CCC(c2ccccc2F)O3)CC1` (relative stereo) [compound 254], the IC50 is 300 nM.
As for `O=C(Cn1cncn1)N[C@H]1CC[C@H](Oc2ccc3c(c2)CCC(c2ccccc2F)O3)CC1` (relative stereo) [compound 256], the IC50 came to 100 nM.
Consider `Cc1ccnn1CCC(=O)N[C@H]1CC[C@H](Oc2ccc3c(c2)CCC(c2ccccc2F)O3)CC1` (relative stereo) [compound 257], for which the IC50 was 200 nM.
As for `Cc1c(CCC(=O)N[C@H]2CC[C@H](Oc3ccc4c(c3)CCC(c3ccccc3F)O4)CC2)cnn1C` (relative stereo) [compound 258], the IC50 was found to be 200 nM.
In the case of `CS(=O)(=O)CCC(=O)N[C@H]1CC[C@H](Oc2ccc3c(c2)CCC(c2ccccc2F)O3)CC1` (relative stereo) [compound 259], the IC50 stood at 100 nM.
For the molecule `O=C(CSC(F)(F)F)N[C@H]1CC[C@H](Oc2ccc3c(c2)CCC(c2ccccc2F)O3)CC1` (relative stereo) [compound 260], the IC50 worked out at 400 nM.
Turning to `Cc1cc(C(=O)N[C@H]2CC[C@H](Oc3ccc4c(c3)CCC(c3ccccc3F)O4)CC2)n[nH]1` (relative stereo) [compound 261], the IC50 was 300 nM.
For the molecule `Cc1ccccc1C1CCc2cc(O[C@H]3CC[C@@H](C(=O)Nc4ccccn4)CC3)ccc2O1` (relative stereo) [compound 265], the IC50 worked out at 400 nM.
As for `Cc1ccccc1C1CCc2cc(O[C@H]3CC[C@H](C(=O)Nc4ccccn4)CC3)ccc2O1` (relative stereo) [compound 266], the IC50 was determined as 300 nM.
Turning to `Cc1ccccc1C1CCc2cc(O[C@H]3CC[C@H](NCC(=O)O)CC3)ccc2O1` (relative stereo) [compound 271], the IC50 is 800 nM.
In the case of `O=C(CO)N[C@H]1CC[C@H](Oc2ccc3c(c2)CCC(c2ccccc2)O3)CC1` (relative stereo) [compound 278], the IC50 came out at 200 nM.
`N[C@H]1C[C@@H](Oc2ccc3c(c2)CCC(c2ccccc2)O3)C1` (relative stereo) [compound 306, hydrochloride]: the IC50 turned out to be 1600 nM.
For `NC1(Cc2ccccc2)CCC(Oc2ccc3c(c2)CCC(c2ccccc2)O3)CC1` (single isomer, unassigned) [compound 45, 1-Benzyl-4-(2-phenylchroman-6-yloxy)-cyclohexylamine, stereoisomeric mixture 1], the IC50 was 22000 nM.
With `NC1(Cc2ccccc2)CCC(Oc2ccc3c(c2)CCC(c2ccccc2)O3)CC1` (single isomer, unassigned) [compound 46, 1-Benzyl-4-(2-phenylchroman-6-yloxy)-cyclohexylamine, stereoisomeric mixture 2], the IC50 was determined as 11000 nM.
As to `O=C(CCn1cccn1)N[C@H]1CC[C@H](Oc2ccc3c(c2)CCC(c2ccccc2F)O3)CC1` (single isomer, unassigned) [compound 179], the IC50 stood at 1200 nM.
On to `O=C(CCn1cccn1)N[C@H]1CC[C@H](Oc2ccc3c(c2)CCC(c2ccccc2F)O3)CC1` (single isomer, unassigned) [compound 253], for which the IC50 came out at 300 nM.
On to `Cc1c(F)cccc1C1CCc2cc(OC3CCC(C(=O)NC4CCCCC4O)CC3)ccc2O1` (single isomer, unassigned) [compound 285], for which the IC50 is 500 nM.
To `Cc1c(F)cccc1C1CCc2cc(OC3CCC(C(=O)NC4CCCCC4O)CC3)ccc2O1` (single isomer, unassigned) [compound 286] belongs 500 nM; to `Cc1c(F)cccc1C1CCc2cc(OC3CCC(C(=O)NC4CCCCC4O)CC3)ccc2O1` (single isomer, unassigned) [compound 287], 100 nM; to `COC(=O)CNC(=O)C1CCC(Oc2ccc3c(c2)CCC(c2ccccc2)O3)CC1` (single isomer, unassigned; stereoisomer 1) [compound 91, Methyl 2-{[cis-4-(2-phenylchroman-6-yloxy)cyclohexanecarbonyl]amino}acetate,stereoisomer 1 (2)], 400 nM.
For the molecule `CCn1nccc1CNC(=O)C1CCC(Oc2ccc3c(c2)CCC(c2ccccc2)O3)CC1` (single isomer, unassigned; stereoisomer 1) [compound 93, N-(2-Ethyl-2H-pyrazol-3-ylmethyl)-[cis-4-(2-phenylchroman-6-yloxy)]-cyclohexanecarboxamide, stereoisomer 1 (2)], the IC50 came to 300 nM.
For the molecule `Cc1nc(CNC(=O)[C@H]2CC[C@@H](Oc3ccc4c(c3)CCC(c3ccccc3)O4)CC2)no1` (single isomer, unassigned; stereoisomer 1) [compound 95, N-(5-Methyl-[1,2,4]oxadiazol-3-ylmethyl)-[4-cis-(2-phenylchroman-6-yloxy)]-cyclohexanecarboxamide, stereoisomer 1 (2)], the IC50 is 200 nM.
For `Cc1c(F)cccc1C1CCc2cc(OC3CCC(C(=O)NC4CCCC4O)CC3)ccc2O1` (single isomer, unassigned; stereoisomer 1) [compound 279, 4-[2-(3-Fluoro-2-methyl-phenyl)chroman-6-yloxy]-N-(2-hydroxycyclopentyl)cyclohexane-carboxamide, stereoisomer 1 (2)] the value was 700 nM; for `COC(=O)CNC(=O)C1CCC(Oc2ccc3c(c2)CCC(c2ccccc2)O3)CC1` (single isomer, unassigned; stereoisomer 2) [compound 92, Methyl 2-[[cis-4-[2-phenylchroman-6-yloxy]cyclohexanecarbonyl]amino]acetate,stereoisomer 2 (2)], 100 nM; for `CCn1nccc1CNC(=O)C1CCC(Oc2ccc3c(c2)CCC(c2ccccc2)O3)CC1` (single isomer, unassigned; stereoisomer 2) [compound 94, N-(2-Ethyl-2H-pyrazol-3-ylmethyl)-[cis-4-(2-phenylchroman-6-yloxy)]-cyclohexanecarboxamide, stereoisomer 2 (2)], 1600 nM.
To `Cc1nc(CNC(=O)[C@H]2CC[C@@H](Oc3ccc4c(c3)CCC(c3ccccc3)O4)CC2)no1` (single isomer, unassigned; stereoisomer 2) [compound 96, N-(5-Methyl-[1,2,4]oxadiazol-3-ylmethyl)-[4-cis-(2-phenylchroman-6-yloxy)]-cyclohexanecarboxamide, stereoisomer 2 (2)] belongs 400 nM.
